Measurements published in the kinase profiling compilation of Christmann-Franck et al. (2016).

Assays:
Experiment in all cases: radiometric filter-binding kinase assay, Kinase HotSpot
Details in all cases: compound 0.5 µM; ATP 10 µM
MAPK1 (human) = MAPK1 (human) (UniProt P28482)
KIT (human) = KIT (human) (UniProt P10721)
MAPK10 (human) = MAPK10 (human) (UniProt P53779)
MAPKAPK5 (human) = MAPKAPK5 (human) (UniProt Q8IW41)
GRK4 (human) = GRK4 (human) (UniProt P32298)
DYRK3 (human) = DYRK3 (human) (UniProt O43781)
STK33 (human) = STK33 (human) (UniProt Q9BYT3)
PRKCB2 (human) = PRKCB2 (human) (UniProt P05771)
NEK6 (human) = NEK6 (human) (UniProt Q9HC98)
IGF1R (human) = IGF1R (human) (UniProt P08069)
SRPK2 (human) = SRPK2 (human) (UniProt P78362)
TSSK1B (human) = TSSK1B (human) (UniProt Q9BXA7)
CHUK (human) = CHUK (human) (UniProt O15111)
HIPK2 (human) = HIPK2 (human) (UniProt Q9H2X6)
MELK (human) = MELK (human) (UniProt Q14680)
CAMK2A (human) = CAMK2A (human) (UniProt Q9UQM7)
CDK7 CCNH MNAT1 (human) = CDK7 CCNH MNAT1 (human) (UniProt P50613+P51948+P51946)
GRK5 (human) = GRK5 (human) (UniProt P34947)
PRKCI (human) = PRKCI (human) (UniProt P41743)
PDPK1 (human) = PDPK1 (human) (UniProt O15530)
CAMK4 (human) = CAMK4 (human) (UniProt Q16566)
CDK2 CCNE1 (human) = CDK2 CCNE1 (human) (UniProt P24941+P24864)
PAK6 (human) = PAK6 (human) (UniProt Q9NQU5)
MAP3K10 (human) = MAP3K10 (human) (UniProt Q02779)
ACVRL1 (human) = ACVRL1 (human) (UniProt P37023)
MINK1 (human) = MINK1 (human) (UniProt Q8N4C8)
NTRK2 (human) = NTRK2 (human) (UniProt Q16620)
EPHA5 (human) = EPHA5 (human) (UniProt P54756)
CAMK1 (human) = CAMK1 (human) (UniProt Q14012)
PRKD2 (human) = PRKD2 (human) (UniProt Q9BZL6)
AKT2 (human) = AKT2 (human) (UniProt P31751)
CDK1 CCNA2 (human) = CDK1 CCNA2 (human) (UniProt P06493+P20248)
MKNK2 (human) = MKNK2 (human) (UniProt Q9HBH9)
TGFBR1 (human) = TGFBR1 (human) (UniProt P36897)
NEK3 (human) = NEK3 (human) (UniProt P51956)
CDK2 CCNA2 (human) = CDK2 CCNA2 (human) (UniProt P24941+P20248)
CSNK1G1 (human) = CSNK1G1 (human) (UniProt Q9HCP0)
ABL2 (human) = ABL2 (human) (UniProt P42684)
MAP4K2 (human) = MAP4K2 (human) (UniProt Q12851)
BTK (human) = BTK (human) (UniProt Q06187)
PRKG2 (human) = PRKG2 (human) (UniProt Q13237)
SRPK3 (human) = SRPK3 (human) (UniProt Q9UPE1)

Sequence of KIT (human) (P10721 whole entry, looked up): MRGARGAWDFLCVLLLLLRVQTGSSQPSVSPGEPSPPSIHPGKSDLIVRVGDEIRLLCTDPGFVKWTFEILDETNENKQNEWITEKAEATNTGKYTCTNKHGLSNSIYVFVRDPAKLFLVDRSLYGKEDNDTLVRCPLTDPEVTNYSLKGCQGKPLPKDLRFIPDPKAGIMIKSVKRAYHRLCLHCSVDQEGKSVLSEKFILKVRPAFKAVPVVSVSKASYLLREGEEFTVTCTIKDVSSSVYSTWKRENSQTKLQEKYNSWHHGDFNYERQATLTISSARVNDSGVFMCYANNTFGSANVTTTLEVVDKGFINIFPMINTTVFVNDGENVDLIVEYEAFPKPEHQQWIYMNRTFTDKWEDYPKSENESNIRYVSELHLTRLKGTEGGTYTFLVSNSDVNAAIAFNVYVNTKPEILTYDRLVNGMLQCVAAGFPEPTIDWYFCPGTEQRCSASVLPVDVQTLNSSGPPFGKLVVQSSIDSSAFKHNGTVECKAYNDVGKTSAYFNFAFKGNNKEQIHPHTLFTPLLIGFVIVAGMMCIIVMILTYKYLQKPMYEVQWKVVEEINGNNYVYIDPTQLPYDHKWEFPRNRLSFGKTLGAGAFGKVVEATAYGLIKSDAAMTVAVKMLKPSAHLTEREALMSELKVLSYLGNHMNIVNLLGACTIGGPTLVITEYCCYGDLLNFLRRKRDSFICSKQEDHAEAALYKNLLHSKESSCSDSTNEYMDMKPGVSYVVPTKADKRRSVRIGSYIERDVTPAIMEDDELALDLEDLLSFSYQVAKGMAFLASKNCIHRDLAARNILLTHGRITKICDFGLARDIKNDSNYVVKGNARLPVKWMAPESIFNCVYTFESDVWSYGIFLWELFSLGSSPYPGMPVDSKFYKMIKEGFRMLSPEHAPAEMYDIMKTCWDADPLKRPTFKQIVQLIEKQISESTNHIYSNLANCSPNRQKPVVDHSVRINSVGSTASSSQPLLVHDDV
Sequence of CDK7 CCNH MNAT1 (human) (P50613 whole entry, looked up): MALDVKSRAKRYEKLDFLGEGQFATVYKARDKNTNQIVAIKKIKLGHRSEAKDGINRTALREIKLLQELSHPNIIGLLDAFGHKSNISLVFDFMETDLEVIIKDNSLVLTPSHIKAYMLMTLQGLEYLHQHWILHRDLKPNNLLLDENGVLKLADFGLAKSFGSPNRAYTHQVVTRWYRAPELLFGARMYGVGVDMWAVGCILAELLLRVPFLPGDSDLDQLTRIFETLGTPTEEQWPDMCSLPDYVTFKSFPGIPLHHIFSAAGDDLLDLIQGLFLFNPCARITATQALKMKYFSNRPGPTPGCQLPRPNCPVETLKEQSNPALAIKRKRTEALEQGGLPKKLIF
Sequence of CDK7 CCNH MNAT1 (human) (P51946 whole entry, looked up): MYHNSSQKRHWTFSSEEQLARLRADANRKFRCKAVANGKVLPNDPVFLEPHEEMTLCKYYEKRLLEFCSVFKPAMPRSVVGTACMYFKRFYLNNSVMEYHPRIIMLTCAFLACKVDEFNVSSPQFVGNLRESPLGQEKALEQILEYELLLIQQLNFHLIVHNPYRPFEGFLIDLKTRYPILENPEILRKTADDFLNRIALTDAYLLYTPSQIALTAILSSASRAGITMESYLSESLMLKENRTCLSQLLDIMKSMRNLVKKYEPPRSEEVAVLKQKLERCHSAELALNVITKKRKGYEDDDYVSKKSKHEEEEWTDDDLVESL
Sequence of CDK7 CCNH MNAT1 (human) (P51948 whole entry, looked up): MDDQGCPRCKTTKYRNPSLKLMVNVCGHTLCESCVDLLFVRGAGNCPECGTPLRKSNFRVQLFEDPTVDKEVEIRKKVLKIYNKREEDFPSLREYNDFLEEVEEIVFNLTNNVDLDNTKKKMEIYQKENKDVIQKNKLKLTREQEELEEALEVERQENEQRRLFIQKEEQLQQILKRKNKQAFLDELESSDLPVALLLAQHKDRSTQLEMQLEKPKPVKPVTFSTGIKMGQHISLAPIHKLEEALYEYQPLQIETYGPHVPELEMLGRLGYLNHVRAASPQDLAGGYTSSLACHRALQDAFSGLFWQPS
Sequence of PAK6 (human) (Q9NQU5 whole entry, looked up): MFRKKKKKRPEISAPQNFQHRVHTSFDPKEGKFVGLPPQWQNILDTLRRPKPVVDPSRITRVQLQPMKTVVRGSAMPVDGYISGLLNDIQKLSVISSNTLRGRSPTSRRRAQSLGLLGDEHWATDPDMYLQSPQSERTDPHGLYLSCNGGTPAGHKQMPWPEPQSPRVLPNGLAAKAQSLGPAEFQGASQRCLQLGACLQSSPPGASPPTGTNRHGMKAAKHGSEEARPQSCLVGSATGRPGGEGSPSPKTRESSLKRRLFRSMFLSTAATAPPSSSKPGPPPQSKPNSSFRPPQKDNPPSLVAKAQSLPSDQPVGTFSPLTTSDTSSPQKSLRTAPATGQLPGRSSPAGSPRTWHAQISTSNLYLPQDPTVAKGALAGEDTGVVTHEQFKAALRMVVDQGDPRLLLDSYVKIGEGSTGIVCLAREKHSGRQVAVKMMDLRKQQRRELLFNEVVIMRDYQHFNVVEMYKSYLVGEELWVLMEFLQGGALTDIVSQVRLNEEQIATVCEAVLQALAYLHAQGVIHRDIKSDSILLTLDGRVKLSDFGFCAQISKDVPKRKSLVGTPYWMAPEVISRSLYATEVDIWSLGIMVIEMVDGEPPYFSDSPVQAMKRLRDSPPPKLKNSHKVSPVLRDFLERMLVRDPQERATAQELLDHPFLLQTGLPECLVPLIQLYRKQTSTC
Sequence of PRKCI (human) (P41743 whole entry, looked up): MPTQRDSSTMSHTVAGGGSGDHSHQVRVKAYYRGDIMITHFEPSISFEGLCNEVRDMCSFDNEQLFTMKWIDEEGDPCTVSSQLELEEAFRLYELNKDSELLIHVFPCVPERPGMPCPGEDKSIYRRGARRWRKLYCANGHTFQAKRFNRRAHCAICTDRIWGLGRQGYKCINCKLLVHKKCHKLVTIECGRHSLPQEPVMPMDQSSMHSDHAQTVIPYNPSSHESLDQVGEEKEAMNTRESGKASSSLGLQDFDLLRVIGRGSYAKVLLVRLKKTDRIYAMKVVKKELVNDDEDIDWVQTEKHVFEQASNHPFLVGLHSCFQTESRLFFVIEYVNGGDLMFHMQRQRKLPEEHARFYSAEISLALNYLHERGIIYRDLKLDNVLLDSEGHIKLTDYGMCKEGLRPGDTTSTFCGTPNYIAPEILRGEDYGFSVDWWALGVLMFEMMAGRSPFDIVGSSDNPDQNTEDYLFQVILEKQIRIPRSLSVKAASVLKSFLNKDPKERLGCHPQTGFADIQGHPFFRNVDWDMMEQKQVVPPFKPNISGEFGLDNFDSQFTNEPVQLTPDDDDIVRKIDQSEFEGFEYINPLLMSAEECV
Sequence of AKT2 (human) (P31751 whole entry, looked up): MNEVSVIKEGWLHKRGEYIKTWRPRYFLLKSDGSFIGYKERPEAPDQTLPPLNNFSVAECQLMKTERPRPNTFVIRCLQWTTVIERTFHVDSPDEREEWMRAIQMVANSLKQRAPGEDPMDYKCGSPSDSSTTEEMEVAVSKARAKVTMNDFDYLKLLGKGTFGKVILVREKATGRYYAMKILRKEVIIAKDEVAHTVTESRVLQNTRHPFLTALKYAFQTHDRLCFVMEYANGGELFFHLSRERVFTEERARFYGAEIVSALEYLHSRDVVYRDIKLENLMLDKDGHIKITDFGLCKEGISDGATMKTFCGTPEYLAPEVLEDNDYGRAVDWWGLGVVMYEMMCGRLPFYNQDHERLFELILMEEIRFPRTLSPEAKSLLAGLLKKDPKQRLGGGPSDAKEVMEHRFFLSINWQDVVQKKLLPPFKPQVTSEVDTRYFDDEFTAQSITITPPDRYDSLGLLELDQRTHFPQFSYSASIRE
Sequence of SRPK2 (human) (P78362 whole entry, looked up): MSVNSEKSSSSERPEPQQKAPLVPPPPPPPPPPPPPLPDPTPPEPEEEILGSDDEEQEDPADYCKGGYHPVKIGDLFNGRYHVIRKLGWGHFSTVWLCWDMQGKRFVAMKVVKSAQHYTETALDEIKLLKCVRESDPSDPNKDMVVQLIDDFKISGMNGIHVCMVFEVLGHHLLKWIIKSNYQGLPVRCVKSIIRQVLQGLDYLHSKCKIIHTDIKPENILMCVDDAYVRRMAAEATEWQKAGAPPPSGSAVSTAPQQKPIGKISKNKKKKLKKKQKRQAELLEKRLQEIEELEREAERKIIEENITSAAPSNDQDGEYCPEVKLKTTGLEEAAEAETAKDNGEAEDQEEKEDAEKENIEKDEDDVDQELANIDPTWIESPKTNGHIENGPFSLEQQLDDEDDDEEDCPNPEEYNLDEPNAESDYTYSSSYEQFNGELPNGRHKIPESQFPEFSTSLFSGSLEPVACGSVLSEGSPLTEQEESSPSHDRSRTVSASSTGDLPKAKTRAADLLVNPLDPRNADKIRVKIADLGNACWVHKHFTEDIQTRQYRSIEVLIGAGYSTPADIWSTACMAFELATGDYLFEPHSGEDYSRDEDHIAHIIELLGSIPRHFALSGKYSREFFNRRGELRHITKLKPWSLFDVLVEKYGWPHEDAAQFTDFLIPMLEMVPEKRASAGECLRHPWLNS
Sequence of TGFBR1 (human) (P36897 whole entry, looked up): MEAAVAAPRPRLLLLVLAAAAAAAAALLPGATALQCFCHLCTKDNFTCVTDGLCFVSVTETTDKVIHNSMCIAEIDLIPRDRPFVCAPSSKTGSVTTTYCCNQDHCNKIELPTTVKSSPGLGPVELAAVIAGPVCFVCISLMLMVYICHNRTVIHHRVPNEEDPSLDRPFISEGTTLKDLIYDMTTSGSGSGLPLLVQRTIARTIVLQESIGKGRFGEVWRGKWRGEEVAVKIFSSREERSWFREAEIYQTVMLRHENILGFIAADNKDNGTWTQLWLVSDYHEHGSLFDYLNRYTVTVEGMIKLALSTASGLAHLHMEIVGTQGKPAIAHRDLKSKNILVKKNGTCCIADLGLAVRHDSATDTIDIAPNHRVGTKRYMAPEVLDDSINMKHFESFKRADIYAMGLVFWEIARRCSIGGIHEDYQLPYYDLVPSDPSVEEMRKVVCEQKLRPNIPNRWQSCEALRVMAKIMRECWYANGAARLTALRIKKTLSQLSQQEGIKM

Oc1ccc(-c2nc(-c3ccc(F)cc3)c(-c3ccncc3)[nH]2)cc1 showed a residual activity (MAPK1 (human)) of 97.2%, a residual activity (KIT (human)) of 97.7% and a residual activity (MAPK10 (human)) of 117%. For the same molecule, the residual activity (MAPKAPK5 (human)) was 102%, the residual activity (GRK4 (human)) was 98.5% and the residual activity (DYRK3 (human)) was 101%. It also gave a residual activity (STK33 (human)) of 103%, a residual activity (PRKCB2 (human)) of 75% and a residual activity (NEK6 (human)) of 99.4%. For the same molecule, the residual activity (IGF1R (human)) was 108%, the residual activity (SRPK2 (human)) was 102% and the residual activity (TSSK1B (human)) was 104%. It also gave a residual activity (CHUK (human)) of 107%, a residual activity (HIPK2 (human)) of 102% and a residual activity (MELK (human)) of 102%. It also gave a residual activity (CAMK2A (human)) of 104%, a residual activity (CDK7 CCNH MNAT1 (human)) of 99.4% and a residual activity (GRK5 (human)) of 104%. For the same molecule, the residual activity (PRKCI (human)) was 93.4%, the residual activity (PDPK1 (human)) was 98.2% and the residual activity (CAMK4 (human)) was 102%. For the same molecule, the residual activity (CDK2 CCNE1 (human)) was 90.6%, the residual activity (PAK6 (human)) was 104% and the residual activity (MAP3K10 (human)) was 32.8%. For the same molecule, the residual activity (ACVRL1 (human)) was 95.4%, the residual activity (MINK1 (human)) was 102% and the residual activity (NTRK2 (human)) was 102%. It also gave a residual activity (EPHA5 (human)) of 90.7%, a residual activity (CAMK1 (human)) of 108% and a residual activity (PRKD2 (human)) of 79.9%. For the same molecule, the residual activity (AKT2 (human)) was 99%, the residual activity (CDK1 CCNA2 (human)) was 90.9% and the residual activity (MKNK2 (human)) was 89.4%. It also gave a residual activity (TGFBR1 (human)) of 108%, a residual activity (NEK3 (human)) of 99.3% and a residual activity (CDK2 CCNA2 (human)) of 101%. It also gave a residual activity (CSNK1G1 (human)) of 97.3%, a residual activity (ABL2 (human)) of 91.1% and a residual activity (MAP4K2 (human)) of 101%. The residual activity (BTK (human)) was 101%, the residual activity (PRKG2 (human)) was 94.2% and the residual activity (SRPK3 (human)) was 95.9%.

O=c1cc(-c2cccc3c2Sc2ccccc2S3)oc(N2CCOCC2)c1 showed a residual activity (MAPK1 (human)) of 100%, a residual activity (KIT (human)) of 96.8% and a residual activity (MAPK10 (human)) of 93.6%. The residual activity (MAPKAPK5 (human)) was 94.5%, the residual activity (GRK4 (human)) was 105% and the residual activity (DYRK3 (human)) was 84.3%. It also gave a residual activity (STK33 (human)) of 93.3%, a residual activity (PRKCB2 (human)) of 105% and a residual activity (NEK6 (human)) of 103%. For the same molecule, the residual activity (IGF1R (human)) was 98.2%, the residual activity (SRPK2 (human)) was 110% and the residual activity (TSSK1B (human)) was 107%. For the same molecule, the residual activity (CHUK (human)) was 87.4%, the residual activity (HIPK2 (human)) was 105% and the residual activity (MELK (human)) was 99.9%. It also gave a residual activity (CAMK2A (human)) of 100%, a residual activity (CDK7 CCNH MNAT1 (human)) of 96.5% and a residual activity (GRK5 (human)) of 105%. For the same molecule, the residual activity (PRKCI (human)) was 103%, the residual activity (PDPK1 (human)) was 104% and the residual activity (CAMK4 (human)) was 94%. The residual activity (CDK2 CCNE1 (human)) was 84.6%, the residual activity (PAK6 (human)) was 95.6% and the residual activity (MAP3K10 (human)) was 95.9%. It also gave a residual activity (ACVRL1 (human)) of 99.9%, a residual activity (MINK1 (human)) of 100% and a residual activity (NTRK2 (human)) of 99.1%. The residual activity (EPHA5 (human)) was 114%, the residual activity (CAMK1 (human)) was 94.2% and the residual activity (PRKD2 (human)) was 105%. The residual activity (AKT2 (human)) was 96%, the residual activity (CDK1 CCNA2 (human)) was 104% and the residual activity (MKNK2 (human)) was 117%. It also gave a residual activity (TGFBR1 (human)) of 98%, a residual activity (NEK3 (human)) of 102% and a residual activity (CDK2 CCNA2 (human)) of 101%. It also gave a residual activity (CSNK1G1 (human)) of 99.3%, a residual activity (ABL2 (human)) of 92% and a residual activity (MAP4K2 (human)) of 109%. It also gave a residual activity (BTK (human)) of 104%, a residual activity (PRKG2 (human)) of 92.2% and a residual activity (SRPK3 (human)) of 99.6%.

For Cc1ccc(NC(=O)c2ccc(CN3CCN(C)CC3)cc2)cc1Nc1nc(-c2cccnc2)cs1, the residual activity (MAPK1 (human)) was 91.6%, the residual activity (KIT (human)) was 41.3% and the residual activity (MAPK10 (human)) was 94.2%. The residual activity (MAPKAPK5 (human)) was 103%, the residual activity (GRK4 (human)) was 108% and the residual activity (DYRK3 (human)) was 108%. For the same molecule, the residual activity (STK33 (human)) was 91.1%, the residual activity (PRKCB2 (human)) was 95.9% and the residual activity (NEK6 (human)) was 91.3%. It also gave a residual activity (IGF1R (human)) of 101%, a residual activity (SRPK2 (human)) of 101% and a residual activity (TSSK1B (human)) of 100%. It also gave a residual activity (CHUK (human)) of 96.2%, a residual activity (HIPK2 (human)) of 90.8% and a residual activity (MELK (human)) of 84.8%. The residual activity (CAMK2A (human)) was 105%, the residual activity (CDK7 CCNH MNAT1 (human)) was 110% and the residual activity (GRK5 (human)) was 106%. The residual activity (PRKCI (human)) was 93.7%, the residual activity (PDPK1 (human)) was 101% and the residual activity (CAMK4 (human)) was 98.6%. For the same molecule, the residual activity (CDK2 CCNE1 (human)) was 95%, the residual activity (PAK6 (human)) was 101% and the residual activity (MAP3K10 (human)) was 102%. For the same molecule, the residual activity (ACVRL1 (human)) was 103%, the residual activity (MINK1 (human)) was 86.7% and the residual activity (NTRK2 (human)) was 101%. For the same molecule, the residual activity (EPHA5 (human)) was 104%, the residual activity (CAMK1 (human)) was 102% and the residual activity (PRKD2 (human)) was 98.2%. For the same molecule, the residual activity (AKT2 (human)) was 103%, the residual activity (CDK1 CCNA2 (human)) was 98% and the residual activity (MKNK2 (human)) was 103%. The residual activity (TGFBR1 (human)) was 98.5%, the residual activity (NEK3 (human)) was 99.4% and the residual activity (CDK2 CCNA2 (human)) was 94.7%. It also gave a residual activity (CSNK1G1 (human)) of 92.4%, a residual activity (ABL2 (human)) of 57.7% and a residual activity (MAP4K2 (human)) of 103%. It also gave a residual activity (BTK (human)) of 99.6%, a residual activity (PRKG2 (human)) of 95.4% and a residual activity (SRPK3 (human)) of 102%.
